Read-outs that look alike come from different tables or passages of the source.
Legend:
[1] = tested on: CMV strain Davis; assay: CMV strain Davis induced cytopathicity in HEL cells; format: cell-based, cytomegalovirus (CMV); details: Human betaherpesvirus 5, 168 h, vs untreated control
Procedure: (§1) Products where X═Y═N, Z=Q=O, U═V═CH and R^1, R^4 and R^8 are as given in Tables 1 and 2 below embodying the present invention were tested in vitro in tissue cultures for toxicity and for potent antiviral actions with respect to cytomegalovirus (CMV).
EC50/μM CMV Davis is the drug concentration in μM required to reduce by 50% CMV strain Davis induced cytopathicity in human embryonic lung fibroblast (HEL) cells measured 7 days post infection compared to untreated control.
(§2) Further details of the methodology employed can be found in McGuigan et al. J. Med. Chem., 1999, 42, 4479-4484.

[2] = tested on: CMV strain AD169; assay: CMV strain AD169 induced cytopathicity in HEL cells; format: cell-based, cytomegalovirus (CMV); details: Human betaherpesvirus 5, AD169, 168 h, vs untreated control
Procedure: as §1
EC50/μm CMV-AD169 is the drug concentration in μM required to reduce by 50% CMV strain AD169 induced cytopathicity in human embryonic lung fibroblast (HEL) cells measured 7 days post infection compared to untreated control.
as §2

[3] = Toxicity in tissue culture, reduction of cell number; format: cell-based; details: human, human embryonic lung fibroblast (HEL) cells, concentration reducing cell number by 50%
Procedure: as §1
CC50/μM is the compound concentration required to reduce the cell number by 50%.
as §2

[4] = Table 1, 7 days post infection, read-out: EC50/μM 1 CMV Davis
[5] = Table 2, 7 days post infection, read-out: EC50/μM 2 CMV Davis

| Structure (SMILES) | EC50 [1, 4] | EC50 ([2]; Table 1, 7 days post infection) | CC50 ([3]; Table 1) | EC50 [1, 5] | EC50 ([2]; Table 2, 7 days post infection) | CC50 ([3]; Table 2) | melting point |
| --- | --- | --- | --- | --- | --- | --- | --- |
| CCCCCCCc1cc2cn(C(CC)CC)c(=O)nc2o1 [Cf2190, 6-Heptyl-3-(1-ethyl-propyl)-3H-furo[2,3-d]pyrimidin-2-one] | 50 µM | 20 µM | > 200 µM | – | – | – | – |
| CCCCc1cc2cn(C(CC)CC)c(=O)nc2o1 [Cf2194, 6-Butyl-3-(1-ethyl-propyl)-3H-furo[2,3-d]pyrimidin-2-one] | > 200 µM | > 50 µM | > 200 µM | – | – | – | – |
| CCCCCCCCCCc1cc2cn(CC3CCCO3)c(=O)nc2o1 (centres unmarked) [Cf2309, 6-Decyl-3-(tetrahydro-furan-2-ylmethyl)-3H-furo[2,3-d]pyrimidin-2-one] | 0.84 µM | 0.78 µM | 49 µM | – | – | – | – |
| CCCCCCCCCCc1cc2cn(Cc3ccc(C)cc3)c(=O)nc2o1 [Cf2314, 6-Decyl-3-(4-methylbenzyl)-3H-furo[2,3-d]pyrimidin-2-one] | > 40 µM | > 40 µM | > 200 µM | – | – | – | – |
| CCCCCCCCCCc1cc2cn(C3CCCCC3)c(=O)nc2o1 [Cf2295, 3-Cyclohexyl-6-decyl-2,3-dihydrofuro[2,3-d]pyrimidin-2-one] | 50 µM | 38 µM | > 200 µM | – | – | – | – |
| CCCCCCCCCCc1cc2cnc(OC(CC)CC)nc2o1 [Cf2252] | – | – | – | 10 µM | 16 µM | 127 µM | – |
| CCCCCCCc1cc2cn(C3CCCC3)c(=O)nc2o1 [Cf2160] | 4 µM | 5 µM | 194 µM | – | – | – | – |
| CCCCCOc1ncc2cc(CCCC)oc2n1 [Cf 2327] | – | – | – | – | – | – | 51 to 52 °C |
| CCCCCCCCCCc1cc2cn(C3CCOC3)c(=O)nc2o1 (centres unmarked) [Cf2276, 6-Decyl-3-(tetrahydro-furan-3-yl)-3H-furo[2,3-d]pyrimidin-None] | 10 µM | 20 µM | 148 µM | – | – | – | – |
| CCCCc1cc2cnc(OC3CCCC3)nc2o1 [Cf2159, 6-Butyl-2-cyclopentyloxy-furo[2,3-d]pyrimidine] | – | – | – | 7 µM | 8 µM | 108 µM | 69 to 71 °C |
| CCCCCCCCCCc1cc2cnc(OCC3CCCCC3)nc2o1 [Cf2274, 2-Cyclohexylmethoxy-6-decyl-furo[2,3-d]pyrimidine] | – | – | – | 2.9 µM | 4.4 µM | > 200 µM | – |
| CCCCCCCCCCc1cc2cnc(OCCCCC)nc2o1 [Cf2247] | – | – | – | > 200 µM | > 200 µM | > 200 µM | – |
| CCCCCCCCCCc1cc2cn(CCC)c(=O)nc2o1 [Cf2304, 6-Decyl-3-propyl-3H-furo[2,3-d]pyrimidin-2-one] | 8 µM | 40 µM | > 200 µM | – | – | – | – |
| CCCCCCCCCCc1cc2cnc(OCCC)nc2o1 [Cf2303, 6-Decyl-2-propoxy-furo[2,3-d]pyrimidine] | – | – | – | 2.1 µM | 2.5 µM | 126 µM | – |
| CCCCCCCc1cc2cn(C3CCCO3)c(=O)nc2o1 (centres unmarked) [Cf2196, 6-Heptyl-3-(tetrahydro-furan-2-yl)-3H-furo[2,3-d]pyrimidin-2-one] | > 20 µM | > 20 µM | 46 µM | – | – | – | – |
| CCCCCCCCCCc1cc2cn(C3CCCO3)c(=O)nc2o1 (centres unmarked) [Cf2249, 6-Decyl-3-(tetrahydro-furan-2′-yl)-2,3-dihydrofuro[2,3-d]pyrimidin-2-one] | 50 µM | > 50 µM | > 200 µM | – | – | – | – |
| CCCCCCc1cc2cnc(OCCCC)nc2o1 [Cf2346, 2-Butyloxy-6-hexyl-furo[2,3-d]pyrimidine] | – | – | – | 3 µM | 8 µM | – | – |
| CCCCCCCc1cc2cn(CCCCC)c(=O)nc2o1 [Cf2192, 6-Heptyl-3-pentyl-3H-furo[2,3-d]pyrimidin-2-one] | > 200 µM | > 200 µM | > 200 µM | – | – | – | – |

| Structure (SMILES) | EC50 [1, 4] | EC50 ([2]; Table 1, 7 days post infection) | CC50 ([3]; Table 1) | EC50 [1, 5] | EC50 ([2]; Table 2, 7 days post infection) | CC50 ([3]; Table 2) | melting point |
| --- | --- | --- | --- | --- | --- | --- | --- |
| CCCCCCCCCCc1cc2cnc(OCc3ccccc3)nc2o1 [Cf2307, 2-Benzyloxy-6-decyl-furo[2,3-d]pyrimidine] | – | – | – | 1.1 µM | 3.3 µM | > 200 µM | – |
| CCCCCCCCCCc1cc2cnc(OCc3ccc(OC)cc3)nc2o1 [Cf2315, 6-Decyl-2-(4-methoxybenzyloxy)-3H-furo[2,3-a]pyrimidine] | – | – | – | 2.9 µM | 3.3 µM | > 200 µM | – |
| CCCCCCCc1cc2cnc(OC(CC)CC)nc2o1 [Cf2189, 6-Heptyl-2-(1-ethyl-propoxy)-furo[2,3-d]pyrimidine] | – | – | – | 12 µM | > 5 µM | 98 µM | 70 to 71 °C |
| CCCCCCCCCCc1cc2cnc(OC3CCCCC3)nc2o1 [Cf2294] | – | – | – | 16 µM | 12 µM | > 200 µM | – |
| CCCCCCc1cc2cn(C)c(=O)nc2o1 [Cf2344, 6-Hexyl-3-methyl-3H-furo[2,3-d]pyrimidin-2-one] | 20 µM | 18 µM | – | – | – | – | – |
| CCCCCCCCCCc1cc2cn(Cc3ccccc3)c(=O)nc2o1 [Cf2308, 3-Benzyl-6-decyl-3H-furo[2,3-d]pyrimidin-2-one] | > 40 µM | > 40 µM | > 200 µM | – | – | – | – |
| CCCCc1cc2cn(C3CCCC3)c(=O)nc2o1 [Cf2158, 6-Butyl-3-cyclopentyl-3H-furo[2,3-d]pyrimidin-2-one] | > 50 µM | > 50 µM | – | – | – | – | – |
| CCCCCCCCCCc1cc2cnc(OC3CCCC3)nc2o1 [Cf2250, 2-Cyclopentyloxy-6decyl-2,3-dihydrofuro[2,3-d]pyrimidine] | – | – | – | > 50 µM | > 50 µM | > 200 µM | – |
| CCCCCCCc1cc2cnc(OCCCCC)nc2o1 [Cf2191, 6-Heptyl-2-pentyloxy-furo[2,3-d]pyrimidine] | – | – | – | 16 µM | > 5 µM | 1110 µM | 48 to 49 °C |
| CCCCCCCCCCc1cc2cn(CC3CCCCC3)c(=O)nc2o1 [Cf2275, 3-Cyclohexylmethyl-6-decyl-3H-furo[2,3-d]pyrimidin-2-one] | > 200 µM | > 200 µM | > 200 µM | – | – | – | – |
| CCCCCn1cc2cc(CCCC)oc2nc1=O [Cf2195, 6-Butyl-3-pentyl-3H-furo[2,3-d]pyrimidin-2-one] | > 50 µM | > 50 µM | > 200 µM | – | – | – | – |
| CCCCCCCCCCc1cc2cnc(OCc3ccc(C)cc3)nc2o1 [Cf2313, 6-Decyl-2-(4-methylbenzyloxy)-3H-furo[2,3-d]pyrimidine] | – | – | – | 3.9 µM | 10.5 µM | > 200 µM | – |
| CCCCCCCCCCc1cc2cn(Cc3ccc(OC)cc3)c(=O)nc2o1 [Cf2316, 6-Decyl-3-(4-methoxybenzyl)-3H-furo[2,3-d]pyrimidin-2-one] | > 200 µM | > 200 µM | > 200 µM | – | – | – | – |
| CCCCCCc1cc2cnc(OCc3ccccc3)nc2o1 [Cf2348, 2-Benzyloxy-6-hexyl-furo[2,3-d]pyrimidine] | – | – | – | > 3.6 µM | > 200 µM | – | – |
| CCCCCCCCCCc1cc2cn(CCCC)c(=O)nc2o1 [Cf2306, 3-Butyl-6-decyl-3H-furo[2,3-d]pyrimidin-2-one] | > 200 µM | > 200 µM | > 200 µM | – | – | – | – |
| CCCCc1cc2cnc(OC(CC)CC)nc2o1 [Cf2193, 6-Butyl-2-(1-ethyl-propoxy)-furo[2,3-d]pyrimidine] | – | – | – | > 20 µM | > 20 µM | 98 µM | – |
| CCCCCCCCCCc1cc2cnc(OCCCC)nc2o1 [Cf2305, 2-Butoxy-6decyl-furo[2,3-a]pyrimidine] | – | – | – | 2.7 µM | 3.9 µM | > 200 µM | – |
| CCCCCCc1cc2cn(Cc3ccccc3)c(=O)nc2o1 [Cf2349, 3-Benzyl-6-hexyl-3H-furo[2,3-d]pyrimidin-2-one] | > 200 µM | > 200 µM | – | – | – | – | – |

— patent publication US20070191373A1, “Heterocyclic compounds for use in the treatment of viral infections” (priority 2003, published 2007)
